Test results as given in patent US20230374035A1, “RAS INHIBITORS” (Revolution Medicines, Inc., priority 2019, published 2023).

molecular target: NRAS Q61K (Homo sapiens, UniProt P01111+P62937, Q61K); assay: Disruption of BRAF RBD interaction with Ras (FRET / MOA assay); assay type: biochemical; settings: read-out: NRAS Q61K FRET data IC50
Protocol: Compound is present in plate wells as a 10-point 3-fold dilution series starting at a final concentration of 30 μM. […] Compounds that facilitate disruption of a Ras:RAF complex are identified as those eliciting a decrease in the TR-FRET ratio relative to DMSO control wells.
Note—The following protocol describes a procedure for monitoring disruption of K-Ras G12C (GMP-PNP) binding to BRAF^RBD by a compound of the invention. This protocol may also be executed substituting other Ras proteins or nucleotides.
The purpose of this biochemical assay was to measure the ability of test compounds to facilitate ternary complex formation between a nucleotide-loaded K-Ras isoform and Cyclophilin A; the resulting ternary complex disrupts binding to a BRAF^RBD construct, inhibiting K-Ras signaling through a RAF effector. Data is reported as IC50 values.
Compound was present in plate wells as a 10-point 3-fold dilution series starting at a final concentration of 30 μM. […] Compounds that facilitate disruption of a K-Ras:RAF complex were identified as those eliciting a decrease in the TR-FRET ratio relative to DMSO control wells.

Chain of NRAS Q61K (P01111 whole entry Q61K): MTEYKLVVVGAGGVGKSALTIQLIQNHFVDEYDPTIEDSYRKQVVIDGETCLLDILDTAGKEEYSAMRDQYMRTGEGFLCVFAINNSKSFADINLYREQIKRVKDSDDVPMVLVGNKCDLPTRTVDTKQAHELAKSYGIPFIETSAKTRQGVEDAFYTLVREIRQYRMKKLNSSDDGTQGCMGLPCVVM
Chain of NRAS Q61K (P62937 whole entry): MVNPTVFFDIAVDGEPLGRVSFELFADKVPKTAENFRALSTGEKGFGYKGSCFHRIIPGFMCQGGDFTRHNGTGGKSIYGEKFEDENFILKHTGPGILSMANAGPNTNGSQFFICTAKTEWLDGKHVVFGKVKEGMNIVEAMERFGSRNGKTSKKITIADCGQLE

IC50, 0.01 to 0.1 µM:
CCn1c(-c2cccnc2[C@H](C)OC)c2c3cc(ccc31)-c1csc(n1)C[C@H](NC(=O)[C@H](C(C)C)N(C)C(=O)N1CC(COC)C1)C(=O)N1CCC[C@H](N1)C(=O)OCC(C)(C)C2 (atropisomer, axis not shown) [Compound A387]
CCn1c(-c2cccnc2[C@H](C)OC)c2c3cc(ccc31)-c1csc(n1)C[C@H](NC(=O)[C@H](C(C)C)N(C)C(=O)N(C)C1COC1)C(=O)N1CCC[C@H](N1)C(=O)OCC(C)(C)C2 (atropisomer, axis not shown) [Compound A334]
CO[C@@H](C)c1ncccc1-c1c2c3cc(ccc3n1CC(F)F)-c1csc(n1)C[C@H](NC(=O)[C@H](C(C)C)N(C)C(=O)N1CC(N(C)C)C1)C(=O)N1CCC[C@H](N1)C(=O)OCC(C)(C)C2 (atropisomer, axis not shown) [Compound A316]
CCn1c(-c2cccnc2[C@H](C)OC)c2c3cc(ccc31)-c1csc(n1)C[C@H](NC(=O)[C@H](C(C)C)N(C)C(=O)N1CC3(CC(NCCOC)C3)C1)C(=O)N1CCC[C@H](N1)C(=O)OCC(C)(C)C2 (atropisomer, axis not shown) [Compound A512]
CCn1c(-c2cccnc2[C@H](C)OC)c2c3cc(ccc31)-c1csc(n1)C[C@H](NC(=O)[C@H](C(C)C)N(C)C(=O)N1CC(NS(C)(=O)=O)C1)C(=O)N1CCC[C@H](N1)C(=O)OCC(C)(C)C2 (atropisomer, axis not shown) [Compound A552]
CCn1c(-c2cccnc2[C@H](C)OC)c2c3cc(ccc31)-c1cc(O)cc(c1)C[C@H](NC(=O)[C@H](C(C)C)N(C)C(=O)[C@H]1CCC(=O)O1)C(=O)N1CCC[C@H](N1)C(=O)OCC(C)(C)C2 (atropisomer, axis not shown) [Compound A405]
CCn1c(-c2cccnc2[C@H](C)OC)c2c3cc(ccc31)-c1cc(O)cc(c1)C[C@H](NC(=O)[C@H](C(C)C)N(C)C(=O)C1CCC3(CCOC3)O1)C(=O)N1CCC[C@H](N1)C(=O)OCC(C)(C)C2 (stereo partly shown) [Compound A409]
CCn1c(-c2cccnc2[C@H](C)OC)c2c3cc(ccc31)-c1csc(n1)[C@@H](OC)[C@H](NC(=O)[C@H](C(C)C)N(C)C(=O)N(C)C)C(=O)N1CCC[C@H](N1)C(=O)OCC(C)(C)C2 (atropisomer, axis not shown) [Compound A598, (2S)—N-((6^3S,3S,4S,Z)-1^1-ethyl-3-methoxy-1^2-(2-((S)-1-methoxyethyl)pyridin-3-yl)-10,10-dimethyl-5,7-dioxo-6^1,6^2,6^3,6^4,6^5,6^6-hexahydro-1^1H-8-oxa-2(4,2)-thiazola-1(5,3)-indola-6(1,3)-pyridazinacycloundecaphane-4-yl)-3-methyl-2-(1,3,3-trimethylureido)butanamide]
CCn1c(-c2cccnc2[C@H](C)OC)c2c3cc(ccc31)-c1csc(n1)C[C@H](NC(=O)[C@H](C(C)C)N(C)C(=O)N1CC([C@H](C)N(C)C)C1)C(=O)N1CCC[C@H](N1)C(=O)OCC(C)(C)C2 (atropisomer, axis not shown) [Compound A538]
CCn1c(-c2cccnc2[C@H](C)OC)c2c3cc(ccc31)-c1csc(n1)C[C@H](NC(=O)[C@H](C(C)C)N(C)C(=O)N1CCC[C@H](N(C)C)CC1)C(=O)N1CCC[C@H](N1)C(=O)OCC(C)(C)C2 (atropisomer, axis not shown) [Compound A493]
CCn1c(-c2cccnc2[C@H](C)OC)c2c3cc(ccc31)-c1csc(n1)C[C@H](NC(=O)[C@H](C(C)C)N(C)C(=O)N1CCO[C@@H](c3ccccc3)C1)C(=O)N1CCC[C@H](N1)C(=O)OCC(C)(C)C2 (atropisomer, axis not shown) [Compound A600]
CCn1c(-c2cccnc2[C@H](C)OC)c2c3cc(ccc31)-c1csc(n1)C[C@H](NC(=O)[C@H](C(C)C)N(C)C(=O)N1CCN(C(=O)[C@@H]3CCCN3C)CC1)C(=O)N1CCC[C@H](N1)C(=O)OCC(C)(C)C2 (atropisomer, axis not shown) [Compound A596]
CCn1c(-c2cccnc2[C@H](C)OC)c2c3cc(ccc31)-c1csc(n1)C[C@H](NC(=O)[C@H](C(C)C)N(C)C(=O)N1CC(CN(C)C)C1)C(=O)N1CCC[C@H](N1)C(=O)OCC(C)(C)C2 (atropisomer, axis not shown) [Compound A576]
CCn1c(-c2cccnc2[C@H](C)OC)c2c3cc(ccc31)-c1csc(n1)C[C@H](NC(=O)[C@H](C(C)C)N(C)C(=O)N1CC(S(C)(=O)=O)C1)C(=O)N1CCC[C@H](N1)C(=O)OCC(C)(C)C2 (atropisomer, axis not shown) [Compound A383]
CCn1c(-c2cccnc2[C@H](C)OC)c2c3cc(ccc31)-c1csc(n1)C[C@H](NC(=O)[C@H](C(C)C)N(C)C(=O)N1CC(C(=O)O)C1)C(=O)N1CCC[C@H](N1)C(=O)OCC(C)(C)C2 (atropisomer, axis not shown) [Compound A344]
CCn1c(-c2cccnc2[C@H](C)OC)c2c3cc(ccc31)-c1csc(n1)C[C@H](NC(=O)[C@H](C(C)C)N(C)C(=O)N1C[C@@H]3OCCN(C)[C@@H]3C1)C(=O)N1CCC[C@H](N1)C(=O)OCC(C)(C)C2 (atropisomer, axis not shown) [Compound A444]
CCn1c(-c2cccnc2[C@H](C)OC)c2c3cc(ccc31)-c1csc(n1)C[C@H](NC(=O)[C@H](C(C)C)N(C)C(=O)N1CC3(CC(N(C)C(C)C)C3)C1)C(=O)N1CCC[C@H](N1)C(=O)OCC(C)(C)C2 (atropisomer, axis not shown) [Compound A485]
CCn1c(-c2cccnc2[C@H](C)OC)c2c3cc(ccc31)-c1csc(n1)C[C@H](NC(=O)[C@H](C(C)C)N(C)C(=O)N1CC3(CC(N(C)C4COC4)C3)C1)C(=O)N1CCC[C@H](N1)C(=O)OCC(C)(C)C2 (atropisomer, axis not shown) [Compound A511]
CCn1c(-c2cccnc2[C@H](C)OC)c2c3cc(ccc31)-c1csc(n1)C[C@H](NC(=O)[C@H](C(C)C)N(C)C(=O)N1CC(C#N)(N(C)C)C1)C(=O)N1CCC[C@H](N1)C(=O)OCC(C)(C)C2 [Compound A452]
CCn1c(-c2cccnc2[C@H](C)OC)c2c3cc(ccc31)-c1csc(n1)C[C@H](NC(=O)[C@H](C(C)C)N(C)C(=O)N1CC([C@H](C)COC)C1)C(=O)N1CCC[C@H](N1)C(=O)OCC(C)(C)C2 (atropisomer, axis not shown) [Compound A533]
CCn1c(-c2cccnc2[C@H](C)OC)c2c3cc(ccc31)-c1csc(n1)C[C@H](NC(=O)[C@H](C(C)C)N(C)C(=O)N1C[C@@H]3OCCN(C)[C@H]3C1)C(=O)N1CCC[C@H](N1)C(=O)OCC(C)(C)C2 (atropisomer, axis not shown) [Compound A445]
CCn1c(-c2cccnc2[C@H](C)OC)c2c3cc(ccc31)-c1csc(n1)C[C@H](NC(=O)[C@H](C(C)C)N(C)C(=O)N1CC[C@H](O)C1)C(=O)N1CCC[C@H](N1)C(=O)OCC(C)(C)C2 (atropisomer, axis not shown) [Compound A401]
